For experiment [1], the system named is wild-type C57BL6/J females. Briefly: Block of the impact of central injection of AVP (3 ng i.c.v.) on food intake after an overnight fast. Conditions: fasted wild-type females; for reversal of AVP-induced hypophagia (1 hour food intake): peripheral injection, Compound 1 7 μg/kg, SR49059 2 mg/kg, AVP 3 ng i.c.v. In kind it is in vivo, mice. Here is the method: First, it was confirmed that the antagonist compounds act as predicted by assessing their ability to block the impact of central injection of AVP (3 ng i.c.v.) on food intake after an overnight fast in wild-type C57BL6/J females.

In experiment [2] the test system is Avpr1a−/− mutants (AVPR1a KO). In words: Intra-amygdala AVP injection, food intake in Avpr1a-/- mutants. It is filed as in vivo, mice. The conditions noted are these: 0.03 ng AVP intra-amygdala vs. saline. The protocol: (§1) In this example, it was tested whether the anorexic effect of AVP can also be achieved by intra-amygdala injections. The amygdala is a long structure extending from −0.58 mm to −2.5 mm to Bregma. To select the stereotaxic coordinates for the injections, qPCR for Avpr1a on serial 200 μm vibratome sections was performed across the entire amygdala. A peak of expression at −1.4 mm was observed. Unilateral injections of 0.03 ng AVP (vs. saline, in a random crossover design) were made into the amygdala of wild-type mice at this position (dorso-ventral −4.5 mm, lateral −2.4 mm (right side) and rostro-caudal −1.4 mm) (see FIG. 13A).
Since AVP can also bind to AVPR1b and OxtR, the intra-amygdala injections were repeated in Avpr1a−/− mutants (AVPR1a KO) as described above for the wild-type mice.

The subject of experiment [3] is wild-type mice. Briefly: Intra-amygdala AVP injection, food intake in wild-type mice. In kind it is in vivo. Conditions: 0.03 ng AVP unilateral intra-amygdala vs. saline. The protocol: as §1
The test system of experiment [4] is wild-type mice. Briefly: Food intake after an overnight fast in wild-type mice injected with Compound 1. It is filed as in vivo. Conditions: wild-type mice at 7-8 weeks of age, versus saline. The protocol: It was also investigated whether Compound 1 acts as a generic appetite stimulant. To test this idea, the impact of injecting Compound 1 after an overnight fast in wild-type mice at 7-8 weeks of age (FIG. 11, diamond data points) was tested.

A further experiment deals with GED mice. Briefly: Food intake of GED mice during an aphagic episode after i.p. injection of an AVPR1A antagonist. In kind it is in vivo. Conditions: for food intake versus saline-injected GED mice, 1 hour after treatment: Compound 1 7 μg/kg, SR49059 2 mg/kg. Here is the method:
In the morning of the first day of an aphagic episode (≧18 hr of aphagia), GED mice were injected i.p. with 7 μg/kg Compound 1 (Sigma) vs. saline.
To determine the extent to which treatment with Compound 1 rescued the normal drive to re-feed after overnight fast, food intake in a group of saline-injected GED mice that were eating normally were also measured, and were then subjected to an investigator-initiated overnight fast (a condition when AVPR1A should not be elevated in the amygdala) (triangle data points, FIG. 11).
Next, the possibility that AVPR1A antagonists could be used to restore feeding behavior in GED mice during an acute aphagic episode was explored. It was studied whether peripheral injection of Compound 1 and SR49059 can reverse anorexigenic behavior in the GED mouse model. To this end, the impact of i.p. injections of […] of Compound 1 vs. 2 mg/kg SR49059 vs. saline in the morning of the first day of an aphagic episode (≧18 h of aphagia) was assessed.
Mice were given ad libitum access to food immediately after the injection and food intake was measured after 1 hour and 2 hours.

The mark [5] stands for this setting: GED mice during aphagic episode, i.p., 1 hour.

Entries after “also recorded” stand apart in the source; their conditions may differ. Starred links: 1 amine or outer side, 2 acyl side, 3 side chain; linkers in the order of their positions; H or OH if unused. Positions of bridges follow the written chain, without caps; N, C: chain ends. Residues, ends and D or L forms follow the SMILES beside them. X1 = O=C(CC1(S[*:2])CCCCC1)[*:1]

Data on three molecules can be found in US20180085423A1, “METHODS FOR TREATING AND DIAGNOSING EATING DISORDERS” (THE TRUSTEES OF COLUMBIA UNIVERSITY IN THE CITY OF NEW YORK, priority 2015, published 2018).

With `NC(=O)CC[C@@H]1NC(=O)[C@H](Cc2ccccc2)NC(=O)[C@H](Cc2ccc(O)cc2)NC(=O)[C@@H](N)CSSC[C@@H](C(=O)N2CCC[C@H]2C(=O)N[C@@H](CCCN=C(N)N)C(=O)NCC(N)=O)NC(=O)[C@H](CC(N)=O)NC1=O` [AVP, arginine vasopressin], the “effect of central injection of AVP on food intake” value in experiment [1] (3 ng AVP i.c.v. vs. saline) is reported as “hypophagia”. The “effect of intra-amygdala AVP on food intake, Avpr1a−/− mutants” value in experiment [2] is “did not affect food intake; also recorded: anorexic effect is not observed”. Besides, the “effect of intra-amygdala AVP on food intake, wild-type mice” value with wild-type mice [3] is “food intake was reduced”.
Turning to `COc1ccc(CC2NC(=O)CC3(CCCCC3)SSCC(C(=O)N3CCCC3C(=O)NC(CCCN=C(N)N)C(=O)NCC(N)=O)NC(=O)C(CC(N)=O)NC(=O)C(CCC(N)=O)NC(=O)C(Cc3ccccc3)NC2=O)cc1` (stereo not drawn) [Compound 1, 1-(beta-mercapto-betabeta-cycopentamethylenepropionic acid)-2-(O-methyl-Tyr)-argipressin] (Y(Me)FQNCPRG-NH2; linker N-5 via X1; configuration not given here), the “reversal of AVP-induced hypophagia (1 hour food intake)” value in experiment [1] is “can restore 1 hour food intake; also recorded: able to reverse hypophagia”. In the experiment on wild-type mice [4], the “food intake in wild-type animals after an overnight fast” value is “did not impact food intake”. In the experiment on GED mice (7 μg/kg dose, 1 hour), the “rescue of food intake at 1 hour relative to normally eating GED mice after overnight fast” value is given as “partial rescue”. For the same molecule, the “rescue of food intake at 2 hours relative to normally eating GED mice after overnight fast” value in the experiment on GED mice (7 μg/kg dose, 2 hour) is “nearly normalized”. Further, in the experiment with GED mice (GED mice during aphagic episode, i.p., 2 hours), the “food intake versus saline-injected GED mice, 2 hours after treatment” value is recorded as “consumed significantly more food”. In the experiment with GED mice (setting [5]), the “food intake versus saline-injected GED mice, 1 hour after treatment” value was “consumed significantly more food”.
Regarding `COc1ccc(S(=O)(=O)N2c3ccc(Cl)cc3[C@](O)(c3ccccc3Cl)[C@@H]2C(=O)N2CCC[C@H]2C(N)=O)cc1OC` [SR49059], in experiment [1] (2 mg/kg), the “reversal of AVP-induced hypophagia (1 hour food intake)” value was “did not significantly reverse AVP-induced hypophagia; also recorded: did not have that effect”. The “food intake versus saline-injected GED mice, 1 hour after treatment” value in the experiment on GED mice (setting [5]) was “did not enhance food intake”.
